Among the data in patent publication US20160222021A1, “ARYL ETHER-BASE KINASE INHIBITORS” (BRISTOL-MYERS SQUIBB COMPANY, priority 2013, published 2016) are IC50 values, retold here.

Structures are written as SMILES.

T1 sequence (Q2M2I8 whole entry): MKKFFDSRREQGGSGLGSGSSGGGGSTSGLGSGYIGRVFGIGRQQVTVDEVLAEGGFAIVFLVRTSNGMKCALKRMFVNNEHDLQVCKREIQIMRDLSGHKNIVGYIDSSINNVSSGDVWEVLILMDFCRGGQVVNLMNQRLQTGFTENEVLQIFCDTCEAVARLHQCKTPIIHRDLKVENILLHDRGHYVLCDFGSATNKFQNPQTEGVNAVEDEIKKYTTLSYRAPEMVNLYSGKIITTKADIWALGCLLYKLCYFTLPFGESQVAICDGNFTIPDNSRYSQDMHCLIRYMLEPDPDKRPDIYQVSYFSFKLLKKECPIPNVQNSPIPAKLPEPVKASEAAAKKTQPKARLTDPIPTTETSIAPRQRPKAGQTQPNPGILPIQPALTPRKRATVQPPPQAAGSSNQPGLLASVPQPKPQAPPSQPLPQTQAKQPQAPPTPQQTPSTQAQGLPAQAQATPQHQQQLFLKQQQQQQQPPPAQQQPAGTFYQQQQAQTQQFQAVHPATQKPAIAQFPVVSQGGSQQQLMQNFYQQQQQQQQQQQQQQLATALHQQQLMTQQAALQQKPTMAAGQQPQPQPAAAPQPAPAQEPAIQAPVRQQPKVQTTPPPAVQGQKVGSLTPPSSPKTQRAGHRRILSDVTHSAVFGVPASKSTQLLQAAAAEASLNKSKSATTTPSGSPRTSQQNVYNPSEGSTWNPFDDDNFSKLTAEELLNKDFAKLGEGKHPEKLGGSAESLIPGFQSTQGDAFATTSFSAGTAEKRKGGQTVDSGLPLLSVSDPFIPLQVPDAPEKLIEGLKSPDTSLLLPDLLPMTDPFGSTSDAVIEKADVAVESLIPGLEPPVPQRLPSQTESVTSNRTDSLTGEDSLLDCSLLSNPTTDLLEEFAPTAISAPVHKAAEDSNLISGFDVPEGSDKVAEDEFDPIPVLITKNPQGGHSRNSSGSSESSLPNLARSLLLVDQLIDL

The first experiment has as its target T1, GST-Xa-hAAK1 (Homo sapiens, UniProt Q2M2I8).
T1 construct: made in house
The experiment is described as follows: AAK1 Kinase Assay. The class given is biochemical. The following applies: ATP 22 μM; IC50 ranges. The procedure: The assays were performed in U-bottom 384-well plates. The final assay volume was 30 μl prepared from 15 μl additions of enzyme and substrates (fluoresceinated peptide (5-FAM)-Aha-[…]-NH2 and ATP) and test compounds in assay buffer (10 mM Tris-HCL pH 7.4, 10 mM MgCl2, 0.01% Tween-20 and 1.0 mM DTT). The reactions were initiated by the combination of bacterially expressed, GST-Xa-hAAK1 with substrates and test compounds. The reactions were incubated at room temperature for 3 hours and terminated by adding 60 μl of 35 mM EDTA buffer to each sample. The reactions were analyzed on the Caliper LabChip 3000 (Caliper, Hopkinton, Mass.) by electrophoretic separation of the fluorescent substrate and phosphorylated product. […] The final concentration of reagents in the assays are ATP, 22 μM; (5-FAM)-Aha-[…]-NH2, 1.5 μM; GST-Xa-hAAK1, 3.5 nM; and DMSO, 1.6%. Dose response curves were generated to determine the concentration required inhibiting 50% of kinase activity (IC50). Compounds were dissolved at 10 mM in dimethylsulfoxide (DMSO) and evaluated at eleven concentrations. IC50 values were derived by non-linear regression analysis.
`Cc1cc2c(cn1)COc1cc(OC[C@@H](N)CC(C)C)ccc1-2` [Example 39, (S)-4-methyl-1-((2-methyl-5H-chromeno[3,4-c]pyridin-8-yl)oxy)pentan-2-amine]: the IC50 (usually the concentration needed to halve the response being measured) fell in the range of 100 to 1200 nM.

As to `CC(=O)Nc1nccc2c1C(C)Oc1cc(OC[C@@H](N)CC(C)C)ccc1-2` (stereo partly drawn) [Example 47, N-(8-(((S)-2-amino-4-methylpentyl)oxy)-5-methyl-5H-chromeno[3,4-c]pyridin-4-yl)acetamide], the IC50 was in the range of 100 to 1200 nM.

In the case of `CC(C)C[C@H](N)COc1ccc2c(c1)OC(C(F)(F)F)c1cnccc1-2` (stereo partly drawn) [Example 49, (2S)-4-methyl-1-((5-(trifluoromethyl)-5H-chromeno[3,4-c]pyridin-8-yl)oxy)pentan-2-amine], the IC50 fell in the range of 10 to 100 nM.

As for `CC(C)C[C@H](N)COc1ccc2c(c1)OC(C(C)C)c1cnccc1-2` (stereo partly drawn) [Example 51, (2S)-1-((5-isopropyl-5H-chromeno[3,4-c]pyridin-8-yl)oxy)-4-methylpentan-2-amine], the IC50 was in the range of 10 to 100 nM.

As to `CC(C)C[C@H](N)COc1ccc2c(c1)OC(C(C)C)c1cnccc1-2` (stereo partly drawn) [Example 55, (2S)-1-((5-isopropyl-5H-chromeno[3,4-c]pyridin-8-yl)oxy)-4-methylpentan-2-amine], the IC50 lay within 10 to 100 nM.

In the case of `CCNc1cc2c(cn1)COc1cc(OC[C@@H](N)CC(C)C)ccc1-2` [Example 58, (S)-8-((2-amino-4-methylpentyl)oxy)-N-ethyl-5H-chromeno[3,4-c]pyridin-2-amine], the IC50 is 10 to 100 nM.

Regarding `CC(C)C[C@H](N)COc1ccc2c(c1)OCc1cnc(NC(=O)C(C)C)cc1-2` [Example 61, (S)—N-(8-((2-amino-4-methylpentyl)oxy)-5H-chromeno[3,4-c]pyridin-2-yl)isobutyramide], the IC50 lay in the range of 10 to 100 nM.

For the molecule `CC(=O)Nc1cc2c(cn1)COc1cc(OC[C@@H](N)CC(C)C)cc(F)c1-2` [Example 62, (S)—N-(8-((2-amino-4-methylpentyl)oxy)-10-fluoro-5H-chromeno[3,4-c]pyridin-2-yl)acetamide], the IC50 fell in the range of 1 to 10 nM.

`CC(C)C[C@H](N)COc1cc2c(cc1Cl)-c1cc(N)ncc1CO2` [Example 71, (S)-8-((2-amino-4-methylpentyl)oxy)-9-chloro-5H-chromeno[3,4-c]pyridin-2-amine]: the IC50 was in the range of 1 to 10 nM.

Regarding `CC(C)C[C@H](N)COc1ccc2c(c1)OCc1cnc(NC(=O)c3cc(F)cc(F)c3)cc1-2` [Example 72, (S)—N-(8-((2-amino-4-methylpentyl)oxy)-5H-chromeno[3,4-c]pyridin-2-yl)-3,5-difluorobenzamide], the IC50 lay within 100 to 1200 nM.

On to `COC(=O)Nc1cc2c(cn1)COc1c-2ccc(OC[C@@](C)(N)CC(C)C)c1C#N` [Example 80, (S)-methyl (8-((2-amino-2,4-dimethylpentyl)oxy)-7-cyano-5H-chromeno[3,4-c]pyridin-2-yl)carbamate], for which the IC50 was less than 1 nM.

In the case of `COC(=O)Nc1cc2c(cn1)COc1cc(OC[C@@](C)(N)CC(C)C)c(Cl)cc1-2` [Example 83, (S)-methyl (8-((2-amino-2,4-dimethylpentyl)oxy)-9-chloro-5H-chromeno[3,4-c]pyridin-2-yl)carbamate], the IC50 was in the range of 1 to 10 nM.

Consider `COC(=O)Nc1cc2c(cn1)COc1c-2ccc(OC[C@@H](N)CC(C)C)c1C#N` [Example 84, (S)-methyl (8-((2-amino-4-methylpentyl)oxy)-7-cyano-5H-chromeno[3,4-c]pyridin-2-yl)carbamate], for which the IC50 lay in the range of 1 to 10 nM.

In the case of `COc1c(OC[C@@](C)(N)CC(C)C)ccc2c1OCc1cnc(NC(C)=O)cc1-2` [Example 85, (S)—N-(8-((2-amino-2,4-dimethylpentyl)oxy)-7-methoxy-5H-chromeno[3,4-c]pyridin-2-yl)acetamide], the IC50 was less than 1 nM.

Regarding `CC(=O)Nc1cc2c(cn1)COc1c-2ccc(OC[C@@](C)(N)CC(C)C)c1OC(F)F` [Example 87, (S)—N-(8-((2-amino-2,4-dimethylpentyl)oxy)-7-(difluoromethoxy)-5H-chromeno[3,4-c]pyridin-2-yl)acetamide], the IC50 is less than 1 nM.

Consider `CC(C)C[C@](C)(N)COc1ccc2c(c1Cl)OCc1cnc(N)cc1-2` [Example 88, (S)-8-((2-amino-2,4-dimethylpentyl)oxy)-7-chloro-5H-chromeno[3,4-c]pyridin-2-amine], for which the IC50 was less than 1 nM.

Turning to `COC(=O)Nc1cc2c(cn1)COc1c-2ccc(OC[C@@](C)(N)CC(C)C)c1OC(F)F` [Example 89, (S)-methyl (8-((2-amino-2,4-dimethylpentyl)oxy)-7-(difluoromethoxy)-5H-chromeno[3,4-c]pyridin-2-yl)carbamate], the IC50 was less than 1 nM.

On to `CC(C)C[C@](C)(N)COc1ccc2c(c1)OCc1cnc(N)cc1-2` [Example 90, (S)-8-((2-amino-2,4-dimethylpentyl)oxy)-5H-chromeno[3,4-c]pyridin-2-amine], for which the IC50 is 1 to 10 nM.

As for `CC(=O)Nc1cc2c(cn1)COc1c-2ccc(OC[C@@](C)(N)CC(C)C)c1Cl` [Example 91, (S)—N-(8-((2-amino-2,4-dimethylpentyl)oxy)-7-chloro-5H-chromeno[3,4-c]pyridin-2-yl)acetamide], the IC50 is less than 1 nM.

With `COC(=O)Nc1cc2c(cn1)COc1c-2ccc(OC[C@@](C)(N)CC(C)C)c1Cl` [Example 92, (S)-methyl (8-((2-amino-2,4-dimethylpentyl)oxy)-7-chloro-5H-chromeno[3,4-c]pyridin-2-yl)carbamate], the IC50 is 1 to 10 nM.

`[2H]C1([2H])Oc2cc(OC[C@@](C)(N)CC(C)C)ccc2-c2cc(NC(=O)OC)ncc21` [Example 97, (S)-methyl (8-((2-amino-2,4-dimethylpentyl)oxy)-5,5-deutero-5H-chromeno[3,4-c]pyridin-2-yl)carbamate]: the IC50 was in the range of 1 to 10 nM.

As for `CC(=O)Nc1cc2c(cn1)COc1cc(OC[C@@](C)(N)CC(C)C)cc(F)c1-2` [Example 98, (S)—N-(8-((2-amino-2,4-dimethylpentyl)oxy)-10-fluoro-5H-chromeno[3,4-c]pyridin-2-yl)acetamide], the IC50 was 1 to 10 nM.

On to `CC(C)C[C@](C)(N)COc1cc(F)c2c(c1)OCc1cnc(N)cc1-2` [Example 99, (S)-8-((2-amino-2,4-dimethylpentyl)oxy)-10-fluoro-5H-chromeno[3,4-c]pyridin-2-amine], for which the IC50 was 1 to 10 nM.

Take `CC(=O)Nc1cc2c(cn1)COc1cc(OC[C@H](CC(C)C)NC(C)=O)ccc1-2` [Example 100, (S)—N-(8-((2-acetamido-4-methylpentyl)oxy)-5H-chromeno[3,4-c]pyridin-2-yl)acetamide]: the IC50 fell in the range of 100 to 1200 nM.

With `CC(=O)Nc1cc2c(cn1)COc1cc(OC[C@H](CC(C)C)NS(C)(=O)=O)ccc1-2` [Example 101, (S)—N-(8-((4-methyl-2-(methylsulfonamido)pentyl)oxy)-5H-chromeno[3,4-c]pyridin-2-yl)acetamide], the IC50 fell in the range of 10 to 100 nM.

Staying with this experiment, now noted: ATP 22 μM; numeric values.
As for `CC(=O)Nc1cc2c(cn1)COc1cc(OC[C@@](C)(N)CC(C)C)ccc1-2` [Example 45, (S)—N-(8-((2-amino-2,4-dimethylpentyl)oxy)-5H-chromeno[3,4-c]pyridin-2-yl)acetamide], the IC50 amounted to 0.87 nM.

Consider `CC(=O)Nc1nccc2c1C(C1CC1)Oc1cc(OC[C@@H](N)CC(C)C)ccc1-2` (stereo partly drawn) [Example 48, N-(8-(((S)-2-amino-4-methylpentyl)oxy)-5-cyclopropyl-5H-chromeno[3,4-c]pyridin-4-yl)acetamide], for which the IC50 was 1200 nM.

Regarding `CC(C)C[C@H](N)COc1ccc2c(c1)OC(C1CC1)c1c-2ccnc1N` (stereo partly drawn) [Example 50, 8-(((S)-2-amino-4-methylpentyl)oxy)-5-cyclopropyl-5H-chromeno[3,4-c]pyridin-4-amine], the IC50 came to 12 nM.

As to `CNc1nccc2c1COc1cc(OC[C@@H](N)CC(C)C)ccc1-2` [Example 54, (S)-8-((2-amino-4-methylpentyl)oxy)-N-methyl-5H-chromeno[3,4-c]pyridin-4-amine], the IC50 is 305 nM.

As to `CC1Oc2cc(OC[C@@H](N)CC3CC3)ccc2-c2ccncc21` (stereo partly drawn) [Example 56, (2S)-1-cyclopropyl-3-((5-methyl-5H-chromeno[3,4-c]pyridin-8-yl)oxy)propan-2-amine], the IC50 worked out at 21 nM.

Consider `COC(=O)Nc1cc2c(cn1)COc1c-2ccc(OC[C@@](C)(N)CC(C)C)c1OC` [Example 86, (S)-methyl (8-((2-amino-2,4-dimethylpentyl)oxy)-7-methoxy-5H-chromeno[3,4-c]pyridin-2-yl)carbamate], for which the IC50 was found to be 0.39 nM.

Regarding `CCOC(=O)Nc1cc2c(cn1)COc1c-2ccc(OC[C@@](C)(N)CC(C)C)c1Cl` [Example 93, (S)-ethyl (8-((2-amino-2,4-dimethylpentyl)oxy)-7-chloro-5H-chromeno[3,4-c]pyridin-2-yl)carbamate], the IC50 came out at 0.89 nM.

With `COC(=O)Nc1cc2c(cn1)COc1cc(OC[C@@](C)(N)CC(C)C)c(F)cc1-2` [Example 95, (S)-methyl (8-((2-amino-2,4-dimethylpentyl)oxy)-9-fluoro-5H-chromeno[3,4-c]pyridin-2-yl)carbamate], the IC50 was 2.1 nM.

In the case of `Cc1cc2c(cn1)c(=O)oc1cc(OC[C@@](C)(N)CC(C)C)ccc12` [Example 102, (S)-8-((2-amino-2,4-dimethylpentyl)oxy)-2-methyl-5H-chromeno[3,4-c]pyridin-5-one], the IC50 was determined as 556 nM.
